Assay results: ChEMBL document CHEMBL5584250, “5-HT6 receptor neutral antagonists protect astrocytes: A lesson from 2-phenylpyrrole derivatives” (Eur J Med Chem, 2024)

Legend:
[1] = molecular target: T1, 5-hydroxytryptamine receptor 1A (Homo sapiens, UniProt P08908); assay: Displacement of [3H]-8-OH-DPAT from human 5-HT1A receptor extracted from HEK293 cell membrane by microbeta plate reader analysis; type: cell membranes
T1 sequence (P08908 whole entry): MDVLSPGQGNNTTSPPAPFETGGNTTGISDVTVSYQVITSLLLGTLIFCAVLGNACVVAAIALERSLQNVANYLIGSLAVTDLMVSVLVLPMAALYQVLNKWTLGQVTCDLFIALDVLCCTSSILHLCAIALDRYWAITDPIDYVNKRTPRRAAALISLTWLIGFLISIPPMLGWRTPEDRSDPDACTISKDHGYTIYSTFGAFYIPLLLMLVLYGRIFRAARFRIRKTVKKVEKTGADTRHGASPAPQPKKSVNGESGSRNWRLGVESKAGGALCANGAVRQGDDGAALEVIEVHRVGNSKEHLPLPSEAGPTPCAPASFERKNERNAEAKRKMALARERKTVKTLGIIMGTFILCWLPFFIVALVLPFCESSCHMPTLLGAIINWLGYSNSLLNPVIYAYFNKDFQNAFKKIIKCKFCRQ

[2] = molecular target: 5-hydroxytryptamine receptor 2A (Homo sapiens, UniProt P28223); assay: Displacement of [3H]-ketanserin from human 5-HT2A receptor extracted from CHO-K1 cell membrane by microbeta plate reader analysis; type: cell membranes
[3] = molecular target: 5-hydroxytryptamine receptor 7 (Homo sapiens, UniProt P34969); assay: Displacement of [3H]-5-CT from human 5-HT7 receptor extracted from HEK293 cell membrane by microbeta plate reader analysis; type: cell membranes
D(2) dopamine receptor = D(2) dopamine receptor (Homo sapiens, UniProt P14416); assay: Displacement of [3H]-raclopride from human D2L receptor extracted from HEK293 cell membrane by microbeta plate reader analysis; type: cell membranes
[4] = Drug metabolism in rat liver microsomes by UPLC-MS analysis; type: ADME, Microsome
[5] = molecular target: 5-hydroxytryptamine receptor 6 (Homo sapiens, UniProt P50406)
Description: Displacement of [3H]-LSD from human 5-HT6 receptor extracted from HEK293 cell membrane by microbeta plate reader analysis

in vitro [6] = conditions: rat, microsomes
in vitro [7] = conditions: rat, microsomes; remark: listed apart in the source
[8] = Drug metabolism in rat liver microsomes assessed as hydroxylation mediated metabolite formation by UPLC-MS analysis; type: ADME, Microsome
[9] = molecular target: hERG (KCNH2) potassium channel (Homo sapiens, UniProt Q12809); assay: Inhibition of hERG potassium channel at 1 uM relative to control; type: toxicity
CYP3A4 = CYP3A4 (Homo sapiens, UniProt P08684); assay: Inhibition of CYP3A4 (unknown origin) at 10 uM relative to control; type: ADME
[10] = Cytotoxicity against human SH-SY5Y cells incubated for 3 hrs by MTT assay; type: toxicity, cell-based
[11] = Cytotoxicity against rat PC12 cells incubated for 3 hrs by MTT assay; type: toxicity, cell-based, PC-12
[12] = Cytotoxicity against mouse C8D1A cells incubated for 3 hrs by MTT assay; type: toxicity, cell-based, C8-D1A
[13] = Cytotoxicity against human astrocytes incubated for 3 hrs by MTT assay; type: toxicity, cell-based, Astrocyte

Chain of 5-hydroxytryptamine receptor 6 (P50406 whole entry): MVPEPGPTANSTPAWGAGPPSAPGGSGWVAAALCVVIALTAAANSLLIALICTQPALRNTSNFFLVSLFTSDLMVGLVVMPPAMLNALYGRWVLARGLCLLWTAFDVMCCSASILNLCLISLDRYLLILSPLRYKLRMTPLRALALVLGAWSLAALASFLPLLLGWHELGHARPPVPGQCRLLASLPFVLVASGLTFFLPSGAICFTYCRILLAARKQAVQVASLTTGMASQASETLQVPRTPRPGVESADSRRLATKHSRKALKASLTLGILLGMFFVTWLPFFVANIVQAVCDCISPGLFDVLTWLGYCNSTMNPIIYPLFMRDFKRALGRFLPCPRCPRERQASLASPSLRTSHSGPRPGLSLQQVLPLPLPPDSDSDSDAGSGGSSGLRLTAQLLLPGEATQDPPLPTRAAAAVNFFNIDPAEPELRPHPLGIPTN
Chain of 5-hydroxytryptamine receptor 2A (P28223 whole entry): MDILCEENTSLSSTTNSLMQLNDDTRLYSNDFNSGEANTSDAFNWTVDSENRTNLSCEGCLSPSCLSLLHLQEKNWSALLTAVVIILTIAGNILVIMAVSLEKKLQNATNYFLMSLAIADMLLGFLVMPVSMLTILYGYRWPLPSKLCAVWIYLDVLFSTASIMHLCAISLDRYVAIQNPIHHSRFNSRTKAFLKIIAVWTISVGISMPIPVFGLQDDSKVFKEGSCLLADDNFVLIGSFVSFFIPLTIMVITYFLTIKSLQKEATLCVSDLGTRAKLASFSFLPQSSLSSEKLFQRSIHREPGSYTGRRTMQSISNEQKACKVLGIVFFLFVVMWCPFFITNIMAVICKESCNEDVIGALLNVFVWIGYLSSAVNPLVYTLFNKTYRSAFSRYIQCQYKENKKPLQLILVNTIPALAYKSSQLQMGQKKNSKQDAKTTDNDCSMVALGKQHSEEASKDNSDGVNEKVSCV
Chain of 5-hydroxytryptamine receptor 7 (P34969 whole entry): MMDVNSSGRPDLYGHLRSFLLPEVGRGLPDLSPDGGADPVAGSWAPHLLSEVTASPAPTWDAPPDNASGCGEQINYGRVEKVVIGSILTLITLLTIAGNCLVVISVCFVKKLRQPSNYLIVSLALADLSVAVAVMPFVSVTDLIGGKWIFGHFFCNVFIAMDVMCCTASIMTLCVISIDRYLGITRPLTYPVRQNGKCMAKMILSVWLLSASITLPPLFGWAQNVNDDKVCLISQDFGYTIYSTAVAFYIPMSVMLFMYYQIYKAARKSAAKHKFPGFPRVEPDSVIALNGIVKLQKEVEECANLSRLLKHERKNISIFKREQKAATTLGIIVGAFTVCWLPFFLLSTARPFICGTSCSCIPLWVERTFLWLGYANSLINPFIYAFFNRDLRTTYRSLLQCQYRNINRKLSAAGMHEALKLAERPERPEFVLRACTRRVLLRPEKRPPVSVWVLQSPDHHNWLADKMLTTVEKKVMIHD
Chain of D(2) dopamine receptor (P14416 whole entry): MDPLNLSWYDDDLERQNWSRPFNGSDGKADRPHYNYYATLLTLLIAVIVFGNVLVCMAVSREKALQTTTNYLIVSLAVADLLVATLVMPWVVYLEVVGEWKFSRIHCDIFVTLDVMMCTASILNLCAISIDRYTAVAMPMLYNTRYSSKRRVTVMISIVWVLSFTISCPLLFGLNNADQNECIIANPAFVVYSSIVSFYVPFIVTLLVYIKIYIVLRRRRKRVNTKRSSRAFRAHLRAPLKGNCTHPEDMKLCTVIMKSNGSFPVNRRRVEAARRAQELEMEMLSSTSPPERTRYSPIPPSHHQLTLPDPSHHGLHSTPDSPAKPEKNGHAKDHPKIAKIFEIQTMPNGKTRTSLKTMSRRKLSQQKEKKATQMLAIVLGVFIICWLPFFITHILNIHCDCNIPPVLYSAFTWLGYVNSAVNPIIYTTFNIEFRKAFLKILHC
Chain of hERG (KCNH2) potassium channel (Q12809 whole entry): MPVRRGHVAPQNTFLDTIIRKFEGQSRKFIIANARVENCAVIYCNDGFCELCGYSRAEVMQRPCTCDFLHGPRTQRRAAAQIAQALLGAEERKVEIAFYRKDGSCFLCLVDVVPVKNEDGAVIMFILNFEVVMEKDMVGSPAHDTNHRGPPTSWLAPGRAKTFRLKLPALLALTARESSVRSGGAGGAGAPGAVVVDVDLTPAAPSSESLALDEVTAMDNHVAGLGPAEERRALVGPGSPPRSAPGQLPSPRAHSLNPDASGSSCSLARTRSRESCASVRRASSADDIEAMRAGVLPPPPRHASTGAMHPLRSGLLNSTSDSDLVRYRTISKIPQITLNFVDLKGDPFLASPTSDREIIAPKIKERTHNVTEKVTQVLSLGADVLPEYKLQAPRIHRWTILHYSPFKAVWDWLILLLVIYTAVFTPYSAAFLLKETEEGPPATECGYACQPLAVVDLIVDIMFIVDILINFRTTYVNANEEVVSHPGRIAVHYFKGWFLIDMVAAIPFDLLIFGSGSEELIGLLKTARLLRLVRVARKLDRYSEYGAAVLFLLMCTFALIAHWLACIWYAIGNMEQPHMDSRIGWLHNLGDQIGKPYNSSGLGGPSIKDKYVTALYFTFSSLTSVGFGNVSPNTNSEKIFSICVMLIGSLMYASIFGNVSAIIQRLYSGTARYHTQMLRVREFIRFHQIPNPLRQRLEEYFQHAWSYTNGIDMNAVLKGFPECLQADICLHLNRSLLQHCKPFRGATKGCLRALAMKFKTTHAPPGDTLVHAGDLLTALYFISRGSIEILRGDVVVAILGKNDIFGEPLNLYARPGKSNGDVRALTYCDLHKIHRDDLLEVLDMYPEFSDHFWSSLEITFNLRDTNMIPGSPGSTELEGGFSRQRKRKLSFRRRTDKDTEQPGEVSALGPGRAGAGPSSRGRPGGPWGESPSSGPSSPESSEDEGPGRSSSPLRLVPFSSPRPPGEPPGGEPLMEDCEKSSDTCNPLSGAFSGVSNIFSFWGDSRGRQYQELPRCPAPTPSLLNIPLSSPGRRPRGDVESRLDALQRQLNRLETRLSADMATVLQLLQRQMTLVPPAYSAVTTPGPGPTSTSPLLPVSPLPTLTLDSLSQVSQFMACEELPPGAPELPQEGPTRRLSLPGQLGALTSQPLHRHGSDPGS
Chain of CYP3A4 (P08684 whole entry): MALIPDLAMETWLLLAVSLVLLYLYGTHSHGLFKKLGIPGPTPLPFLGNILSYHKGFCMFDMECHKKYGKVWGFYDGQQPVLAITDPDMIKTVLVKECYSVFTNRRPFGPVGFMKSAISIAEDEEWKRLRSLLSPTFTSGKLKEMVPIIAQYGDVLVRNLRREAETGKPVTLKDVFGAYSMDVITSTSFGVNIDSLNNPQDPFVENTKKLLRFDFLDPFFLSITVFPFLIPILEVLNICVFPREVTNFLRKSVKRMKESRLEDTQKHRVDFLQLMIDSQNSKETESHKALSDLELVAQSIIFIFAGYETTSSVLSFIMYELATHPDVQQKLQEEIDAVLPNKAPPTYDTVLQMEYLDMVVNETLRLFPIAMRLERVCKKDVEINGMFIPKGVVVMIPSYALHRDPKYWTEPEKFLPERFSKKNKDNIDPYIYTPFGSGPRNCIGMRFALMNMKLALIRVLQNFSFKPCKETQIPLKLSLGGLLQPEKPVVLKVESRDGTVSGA

**Q.** With `O=C(NC1CCNCC1)c1ccn(S(=O)(=O)c2cccc(Cl)c2)c1-c1cccc(F)c1` as the compound, how does the Ki [1] read?
**A.** The Ki was 68.6 µM.

**Q.** And the Ki [2]?
**A.** The Ki was 10.6 µM.

**Q.** What about the Ki [3] of the same compound?
**A.** Its Ki is 84 µM.

**Q.** And the Ki (D(2) dopamine receptor)?
**A.** Its Ki is 7.69 µM.

**Q.** Which Ki [1] does the source give for `COc1cccc(-c2cccn2S(=O)(=O)c2cccc(N3CCNCC3)c2)c1` here?
**A.** The Ki was 0.916 µM.

**Q.** What about the Ki [2] of the same compound?
**A.** The Ki was 0.655 µM.

**Q.** What about the Ki [3] of the same compound?
**A.** Its Ki is 11.6 µM.

**Q.** What about the Ki (D(2) dopamine receptor) of the same compound?
**A.** The Ki was 5.2 µM.

**Q.** And the Drug metabolism [4]?
**A.** Its Drug metabolism is “Metabolite_Notdetected”.

**Q.** And the Ki [5]?
**A.** Its Ki is 0.001 µM.

**Q.** And the half-life at 1 h, 10 µM (in vitro [6])?
**A.** Its half-life at 1 h, 10 µM is 36.7 min.

**Q.** What about the microsomal CLint at 1 h, 10 µM (in vitro [7]) of the same compound?
**A.** Its microsomal CLint at 1 h, 10 µM is 56.7 µL/min/mg.

**Q.** For `O=S(=O)(c1cccc(NC2CCNCC2)c1)n1cccc1-c1ccccc1`, which Ki [1] is on record?
**A.** The Ki was 40.6 µM.

**Q.** And the Ki [2]?
**A.** Its Ki is 1.54 µM.

**Q.** What about the Ki [3] of the same compound?
**A.** Its Ki is 1.99 µM.

**Q.** What about the Ki (D(2) dopamine receptor) of the same compound?
**A.** The Ki was 10.8 µM.

**Q.** And the Drug metabolism [8]?
**A.** The Drug metabolism was “Metabolite_Detected”.

**Q.** And the Ki [5]?
**A.** The Ki was 0.004 µM.

**Q.** What about the half-life at 1 h, 10 µM (in vitro [6]) of the same compound?
**A.** Its half-life at 1 h, 10 µM is 101 min.

**Q.** What about the microsomal CLint at 1 h, 10 µM (in vitro [7]) of the same compound?
**A.** The microsomal CLint at 1 h, 10 µM was 20.6 µL/min/mg.

**Q.** What does the source list for `O=S(=O)(c1cccc(N2CCNCC2)c1)n1cccc1-c1ccccc1`?
**A.** Ki [1]: 0.755 µM; Ki [2]: 0.412 µM; Ki [3]: 12.3 µM; Ki (D(2) dopamine receptor): 2.17 µM; Drug metabolism [8]: Metabolite_Detected; Ki [5]: 0.001 µM; half-life at 1 h, 10 µM (in vitro [6]): 83.6 min; microsomal CLint at 1 h, 10 µM (in vitro [7]): 24.9 µL/min/mg

**Q.** With `O=S(=O)(c1ccccc1)n1cccc1-c1cccc(N2CCNCC2)c1` as the compound, how does the Ki [1] read?
**A.** The Ki was 2.47 µM.

**Q.** What about the Ki [2] of the same compound?
**A.** Its Ki is 15.9 µM.

**Q.** What about the Ki [3] of the same compound?
**A.** The Ki was 1.32 µM.

**Q.** What about the Ki (D(2) dopamine receptor) of the same compound?
**A.** Its Ki is 2.7 µM.

**Q.** What about the Drug metabolism [8] of the same compound?
**A.** Its Drug metabolism is “Metabolite_Detected”.

**Q.** What about the Ki [5] of the same compound?
**A.** Its Ki is 0.027 µM.

**Q.** What about the half-life at 1 h, 10 µM (in vitro [6]) of the same compound?
**A.** Its half-life at 1 h, 10 µM is 15.3 min.

**Q.** And the microsomal CLint at 1 h, 10 µM (in vitro [7])?
**A.** Its microsomal CLint at 1 h, 10 µM is 109 µL/min/mg.

**Q.** For `O=S(=O)(c1cccc(N2CCNCC2)c1)n1cccc1-c1cccc(F)c1`, which Ki [1] is on record?
**A.** Its Ki is 1.84 µM.

**Q.** What about the Ki [2] of the same compound?
**A.** The Ki was 2.51 µM.

**Q.** What about the Ki [3] of the same compound?
**A.** Its Ki is 11.5 µM.

**Q.** And the Ki (D(2) dopamine receptor)?
**A.** Its Ki is 4.33 µM.

**Q.** What about the Drug metabolism [4] of the same compound?
**A.** Its Drug metabolism is “Metabolite_Notdetected”.

**Q.** And the inhibition at 1 µM [9]?
**A.** The inhibition at 1 µM was 8%.

**Q.** And the inhibition at 10 µM (CYP3A4)?
**A.** The inhibition at 10 µM was 94%.

**Q.** What about the IC50 at 3 h [10] of the same compound?
**A.** Its IC50 at 3 h is 18.5 µM.

**Q.** What about the IC50 at 3 h [11] of the same compound?
**A.** The IC50 at 3 h was 25.6 µM.

**Q.** What about the IC50 at 3 h [12] of the same compound?
**A.** Its IC50 at 3 h is 37.4 µM.

**Q.** What about the IC50 at 3 h [13] of the same compound?
**A.** The IC50 at 3 h was 39.3 µM.

**Q.** What about the Ki [5] of the same compound?
**A.** The Ki was 0.001 µM.

**Q.** What about the half-life at 1 h, 10 µM (in vitro [6]) of the same compound?
**A.** Its half-life at 1 h, 10 µM is 49.3 min.

**Q.** And the microsomal CLint at 1 h, 10 µM (in vitro [7])?
**A.** The microsomal CLint at 1 h, 10 µM was 32.4 µL/min/mg.
